The values that follow come from PubChem BioAssay (NCI).

Molecules are shown by their SMILES.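 Protocol summary: plate cells (96-well), add compound at 5 concentrations, incubate 48 h, interpolate endpoints linearly. GI50 = concentration required for 50% inhibition of growth. TGI denotes the concentration required for complete inhibition of growth.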

Some test systems named below: EKVX NSCLC; HT29 colon; IGROV1 ovarian; COLO 205 colon; TK-10 renal; SK-MEL-28 melanoma; CCRF-CEM leukemia; MOLT-4 leukemia; K-562 leukemia; NCI-H522 lung.
Test in all cases: growth of human tumour cells (NCI), 48 h

As for `COC(=O)/C(=N\Nc1nnc(C)n1N)C(C#N)c1ccc(Cl)cc1` (centres undefined), the TGI with EKVX NSCLC, with HT29 colon, in the test with IGROV1 ovarian, in the test on COLO 205 colon, in the test with TK-10 renal and with SK-MEL-28 melanoma was more than 100 µM in each case.

`CN1c2ccc(Cl)cc2C(=O)NC1c1ccc([N+](=O)[O-])s1` (centres undefined): the TGI in the test with CCRF-CEM leukemia is more than 100 µM; in the test with EKVX NSCLC, 57.8 µM; with MOLT-4 leukemia, 33.7 µM; in the test with HT29 colon it was 39.1 µM; in the test with K-562 leukemia it was 34.8 µM; in the test with IGROV1 ovarian, 31.5 µM. For the same compound, the figures for the TGI in the test with COLO 205 colon, with TK-10 renal and in the test with SK-MEL-28 melanoma were 66.4 µM, 48.5 µM and 43.7 µM, respectively.

In the case of `CC(C)n1nc(-c2cc3cc(O)ccc3[nH]2)c2c(N)ncnc21`, the GI50 in the test on CCRF-CEM leukemia was 0.345 µM; in the test with NCI-H522 lung, 0.0974 µM; with MOLT-4 leukemia, 0.315 µM; in the test with HT29 colon, 0.465 µM; in the test with K-562 leukemia, 0.579 µM; in the test with IGROV1 ovarian, 0.0945 µM. Besides, the GI50 in the test with COLO 205 colon was 0.363 µM; in the test with TK-10 renal it was 0.178 µM; in the test with SK-MEL-28 melanoma, 0.12 µM. Also, the TGI was 4.28 µM in the test on CCRF-CEM leukemia; 2.02 µM with NCI-H522 lung; 6.2 µM in the test with MOLT-4 leukemia; 28.7 µM in the test with HT29 colon; 36.1 µM with K-562 leukemia; 0.774 µM in the test with IGROV1 ovarian. Moreover, the TGI came to 4.19 µM in the test with COLO 205 colon, 2.31 µM in the test with TK-10 renal and 1.67 µM in the test on SK-MEL-28 melanoma.

Turning to `Cc1cccc(N2CCN(C(=S)c3ccc4c(c3)OCO4)CC2)c1`, the GI50 is 6.91 µM in the test on CCRF-CEM leukemia; 7.12 µM in the test with EKVX NSCLC; 15.8 µM in the test with MOLT-4 leukemia; 0.521 µM in the test with K-562 leukemia; 1.21 µM in the test with IGROV1 ovarian; 0.582 µM with COLO 205 colon. Moreover, in the test with SK-MEL-28 melanoma, the GI50 is 2.19 µM. Further, the TGI in the test with CCRF-CEM leukemia was more than 100 µM; in the test on EKVX NSCLC it was more than 100 µM; in the test with MOLT-4 leukemia, more than 100 µM; with K-562 leukemia, more than 100 µM; in the test with IGROV1 ovarian, more than 100 µM; in the test on COLO 205 colon it was 4.9 µM. In the test on SK-MEL-28 melanoma, this compound had a TGI of more than 100 µM.

Regarding `CC1(C)C(=O)N(CCCCCCN2C(=O)C(C)(C)c3ccccc32)c2ccccc21`, the TGI was 47.5 µM with CCRF-CEM leukemia; more than 100 µM with EKVX NSCLC; 60 µM in the test with MOLT-4 leukemia; 43.5 µM in the test with HT29 colon; 55.4 µM with K-562 leukemia; more than 100 µM with IGROV1 ovarian. Besides, the TGI is 55.2 µM in the test on COLO 205 colon, more than 100 µM with TK-10 renal and more than 100 µM with SK-MEL-28 melanoma.

Take `Cc1ccc(C2=C(c3ccccc3)C(Br)(c3ccc(C)cc3)C(c3ccccc3)=C2c2ccc(C)cc2)cc1`: the TGI in the test with CCRF-CEM leukemia, with EKVX NSCLC, in the test with MOLT-4 leukemia, in the test on K-562 leukemia, with IGROV1 ovarian and in the test with COLO 205 colon was more than 100 µM throughout. Moreover, the TGI in the test with TK-10 renal and in the test on SK-MEL-28 melanoma was more than 100 µM in each case.

Turning to `CCCCCCCC/C=C/CCCCCCCC(=O)OC[C@H]1O[C@@H](n2ccc(N)nc2=O)C(F)(F)[C@@H]1O`, the GI50 was less than 0.0158 µM with CCRF-CEM leukemia; 0.201 µM in the test on NCI-H522 lung; 0.0352 µM with MOLT-4 leukemia; 0.097 µM with HT29 colon; 0.307 µM in the test with K-562 leukemia; 19 µM in the test on IGROV1 ovarian. In addition, the GI50 is 0.131 µM in the test with COLO 205 colon, 2.38 µM in the test with TK-10 renal and more than 51.1 µM with SK-MEL-28 melanoma. Also, the TGI in the test on CCRF-CEM leukemia was 2.09 µM; in the test on NCI-H522 lung it was more than 100 µM; in the test with MOLT-4 leukemia, 5.02 µM; with HT29 colon, more than 100 µM; with K-562 leukemia, more than 100 µM; in the test with IGROV1 ovarian, more than 100 µM. For the same compound, the TGI in the test on COLO 205 colon was more than 37.9 µM; in the test on TK-10 renal, more than 100 µM; in the test with SK-MEL-28 melanoma, more than 100 µM.

Consider `CN1C(=O)c2cccc3cc([N+](=O)[O-])cc(c23)C1=O`, for which the TGI in the test with CCRF-CEM leukemia, with NCI-H522 lung, in the test on MOLT-4 leukemia, in the test with HT29 colon, in the test with K-562 leukemia and in the test on IGROV1 ovarian was more than 10 µM each time. Besides, the TGI in the test with COLO 205 colon, in the test with TK-10 renal and in the test with SK-MEL-28 melanoma was more than 10 µM throughout.

For `c1cc(CNC23CC4CC(CC(C4)C2)C3)cc(C[N+](Cc2cccc(CNC34CC5CC(CC(C5)C3)C4)c2)(Cc2cccc(CNC34CC5CC(CC(C5)C3)C4)c2)Cc2cccc(CNC34CC5CC(CC(C5)C3)C4)c2)c1` (centres undefined), the GI50 in the test with CCRF-CEM leukemia was 6.1 µM; in the test on NCI-H522 lung, 3.06 µM; in the test with MOLT-4 leukemia, 5.52 µM; with HT29 colon it was 3.58 µM; with K-562 leukemia, 6.1 µM; in the test on IGROV1 ovarian, 3.7 µM. Also, the GI50 is 4.57 µM in the test with COLO 205 colon, 7.75 µM with TK-10 renal and 6.94 µM in the test with SK-MEL-28 melanoma. Besides, the TGI came to 209 µM in the test with CCRF-CEM leukemia; 6.49 µM in the test on NCI-H522 lung; 17.1 µM in the test with MOLT-4 leukemia; 11.8 µM in the test on HT29 colon; 151 µM with K-562 leukemia; 9.8 µM with IGROV1 ovarian. For the same compound, the TGI with COLO 205 colon was found to be 13.1 µM; with TK-10 renal it was 30 µM; in the test on SK-MEL-28 melanoma it was 33.1 µM.

Regarding `Cc1cccc(NC(=O)/C(=N\NC(C)(C)C)C2NC(=S)NC2=O)c1C` (centres undefined), the TGI with CCRF-CEM leukemia, in the test on EKVX NSCLC, with MOLT-4 leukemia, with K-562 leukemia, with IGROV1 ovarian and with COLO 205 colon was more than 100 µM in each case. The compound also had a TGI in the test with TK-10 renal of more than 100 µM.

Take `NC(N)=N/N=C(\c1nc2ccc([N+](=O)[O-])cc2[nH]c1=O)C(O)c1ccc([N+](=O)[O-])cc1` (centres undefined): the TGI in the test on CCRF-CEM leukemia is more than 100 µM; with NCI-H522 lung it was 89.6 µM; in the test on MOLT-4 leukemia, more than 100 µM; in the test with HT29 colon, more than 100 µM; in the test on K-562 leukemia, more than 100 µM; in the test with IGROV1 ovarian it was more than 100 µM. Besides, the TGI in the test on COLO 205 colon and with SK-MEL-28 melanoma was more than 100 µM in each case.

Regarding `CC(C)(C)c1ccc2c(c1)S(=O)(=O)Nc1ccccc1NS(=O)(=O)c1cc(C(C)(C)C)ccc1OCCOCCOCCO2`, the TGI in the test on CCRF-CEM leukemia, with EKVX NSCLC, with MOLT-4 leukemia, in the test with HT29 colon, in the test on K-562 leukemia and in the test on IGROV1 ovarian was more than 100 µM throughout. In addition, the TGI in the test with COLO 205 colon, in the test on TK-10 renal and in the test on SK-MEL-28 melanoma was more than 100 µM each time.

In the case of `NCC1Nc2ccccc2[C@@H](O)C1O` (some centres undefined), the TGI in the test with CCRF-CEM leukemia, with EKVX NSCLC, in the test on MOLT-4 leukemia, in the test on HT29 colon, in the test on K-562 leukemia and with IGROV1 ovarian was more than 100 µM each time. Further, the TGI in the test on COLO 205 colon, in the test on TK-10 renal and in the test with SK-MEL-28 melanoma was more than 100 µM throughout.

Turning to `COc1cc(/C=C/c2cc(/C=C/c3ccc(O)c(OC)c3)n(C(=O)Nc3ccc(F)c(Cl)c3)n2)ccc1O`, the GI50 is 0.131 µM with CCRF-CEM leukemia; 1.22 µM in the test with EKVX NSCLC; 0.282 µM in the test on MOLT-4 leukemia; 1.31 µM with HT29 colon; 0.288 µM in the test on K-562 leukemia; 0.47 µM with IGROV1 ovarian. Also, the GI50 with COLO 205 colon is 1.76 µM; in the test on TK-10 renal, 0.58 µM; in the test with SK-MEL-28 melanoma, 0.52 µM. Further, the TGI is more than 100 µM with CCRF-CEM leukemia; 6.98 µM in the test on EKVX NSCLC; 1.4 µM with MOLT-4 leukemia; 4.26 µM with HT29 colon; 1.45 µM in the test on K-562 leukemia; 3.59 µM with IGROV1 ovarian. Moreover, the TGI amounted to 3.25 µM with COLO 205 colon, 3.56 µM in the test on TK-10 renal and 3.92 µM in the test on SK-MEL-28 melanoma.

Turning to `NCCCCN(CCCN)/[N+]([O-])=N\O`, the TGI with CCRF-CEM leukemia, in the test on NCI-H522 lung, in the test on MOLT-4 leukemia, with HT29 colon, in the test with K-562 leukemia and in the test on IGROV1 ovarian was more than 100 µM throughout. The TGI in the test on COLO 205 colon and in the test on SK-MEL-28 melanoma was more than 100 µM throughout.

`O=C1OC(c2ccccc2)=N/C1=C\c1cccc2ccccc12`: the TGI with CCRF-CEM leukemia, in the test with NCI-H522 lung, in the test with MOLT-4 leukemia, with HT29 colon, in the test on K-562 leukemia and in the test with IGROV1 ovarian was more than 100 µM in each case. Moreover, the TGI with COLO 205 colon, in the test with TK-10 renal and in the test with SK-MEL-28 melanoma was more than 100 µM throughout.

Take `Nn1c(=O)n(Cc2ccccc2)n(-c2ccccc2)c1=O`: the TGI with CCRF-CEM leukemia, in the test with NCI-H522 lung, in the test with MOLT-4 leukemia, in the test on HT29 colon, in the test on K-562 leukemia and in the test on IGROV1 ovarian was more than 100 µM each time. The TGI in the test with TK-10 renal and in the test with SK-MEL-28 melanoma was more than 100 µM throughout.

Consider `Cc1cc(Cl)ccc1N=C1NC(=O)C(CC(=O)Nc2ccc([N+](=O)[O-])cc2[N+](=O)[O-])S1` (centres undefined), for which the TGI in the test with CCRF-CEM leukemia was more than 100 µM; with EKVX NSCLC it was more than 100 µM; with MOLT-4 leukemia, 55.5 µM; with HT29 colon, more than 100 µM; with K-562 leukemia, more than 100 µM; with IGROV1 ovarian, more than 100 µM. The TGI in the test on COLO 205 colon, in the test on TK-10 renal and in the test with SK-MEL-28 melanoma was more than 100 µM in each case.
